From patent US20260109727A1, “RNA CONSTRUCTS AND USES THEREOF” (BioNTech SE, priority 2022, published 2026)

Experiments:
BALB/c mice = test: Plasma EPO in mice IV injected with 3 μg TransIT-complexed EPO mRNA (ELISA); type: in vivo
Method: To confirm in vitro data, female BALB/c mice from Jackson Laboratory (Bar Harbor, ME, USA) at the age of eight to ten weeks were used for in vivo experiment in accordance with federal policies on animal research (Ethics approval number: G18-12-027). Mice (n=3/group) were injected intravenously (i.v.) with 3 μg TransIT-complexed (Mirus Bio) EPO mRNAs in a final volume of 200 μL Dulbecco's modified Eagle medium (DMEM). Mice used as controls were injected with TransIT-reagent diluted in DMEM but without RNA. Mice were injected with EPO mRNA complexed with TransIT-reagent and EPO levels in plasma were measured using ELISA (FIG. 8A). Hematocrit was measured from 18 μl of blood that was collected at the indicated times using centrifugation in Drummond microcaps glass capillary tubes (20 μl volume, Merck, Germany) as described (20) (FIG. 8B). After determination of the hematocrit, capillary tubes were snapped open, and the plasma was collected to measure EPO levels and analyzed for mouse Erythropoietin DuoSet ELISA kit (R&D Systems) according to the manufacturer's instructions. […] EPO RNA containing m1Ψ translated two-fold more than U-containing mRNA at each time points (FIG. 8A). Both compound I′-1 and compound I′-6 are suitable for translation of the encoded protein and each cap analog can be used for synthesizing of non-replicating functional mRNAs (FIG. 8A, 8B).
In each in vivo experiment in order to measure the translational efficiency and to determine the functionality of EPO mRNA capped with I′-1, I′-2, I′-3, I′-5, I′-6, I′-9, I′-12, I′-13, I′-16, CC114, and CC413 in vivo, female BALB/c mice from Jackson Laboratory (Bar Harbor, ME, USA) at the age of eight to ten weeks were used for in accordance with federal policies on animal research (Ethics approval number: G19-12-074). In each case, mice (n=3/group) were injected intravenously (i.v.) with 3 μg TransIT-complexed (Mirus Bio) EPO mRNAs in a final volume of 200 μL Dulbecco's modified Eagle medium (DMEM). Mice used as controls were injected with TransIT-reagent diluted in DMEM but without RNA. To measure hematocrits and EPO levels in the individual mice that were injected with EPO mRNA capped with I′-6, I′-1, CC114, and CC413 and complexed with TransIT-reagent, 18 μL of blood was collected at the indicated times (FIG. 8B) and centrifuged in Drummond microcaps glass capillary tubes (20 μl volume, Merck, Germany) as described (19). After determination of the hematocrit, capillary tubes were snapped open, and the plasma was collected to measure EPO levels and analyzed for mouse Erythropoietin DuoSet ELISA kit (R&D Systems) according to the manufacturer's instructions. […] EPO RNA containing m1Ψ modifications translated 2-3-fold, 5-fold, and 10-fold more than U-containing mRNAs at 6-24, 48 and 72 hours after injections, respectively. (FIG. 8A). […] To address translation of I′-6-capped mRNA in human primary hepatocytes, EPO level was measured from supernatants transfected using 0.1 μg/well TransIT-formulated I′-6- or CC114-capped uRNA (FIG. 13).
To this end, we generated U-containing as well as m1Ψ-modified EPO RNA capped with cap analogs which belong to either the non-ARCA (I′-13) or ARCA (I′-6) classes. Moreover, the latter ones contain 2′-OMe (I′-5) or 3′-OMe (I′-6) at the ribose of the m7G moiety. Three μg of TransIT-complexed EPO mRNA capped with nucleoside modification-containing NeoCaps I′-13, I′-5 and I′-6 cap analogs were injected into mice intravenously. After that EPO level of plasma collected from mice was measured at 6, 24 and 48 hours after administration to compare the translational activity of mRNA capped with NeoCaps with U-containing or m1Ψ-modified mRNA capped with non-modified ARCA 3′OMe I′-1.
Plasma EPO level of mice injected with 3 μg of each TransIT-complexed mRNA was determined using murine EPO-specific ELISA at 6, 24, 48 and 72 hours after intravenous administration. […]

human PBMCs = test: XTT cytotoxicity test of PBMCs transfected with LPX-formulated EPO mRNA; type: cell-based; conditions: 24 h, up to 1 μg/well mRNA
Method: Human buffy coats from healthy individuals were obtained from the Faculty of Medicine of Johannes Gutenberg University, Mainz and used to isolate peripheral blood mononuclear cells (PBMCs) on a Ficoll-Paque™ PLUS (Cytiva, Marlborough, MA, USA) density gradient. In preparation for mRNA transfection, cryopreserved PBMCs were thawed and seeded into 96-well plates at a density of 5×10^5 cells per well in 190 μL RPMI medium supplemented with 1% non-essential amino acids (NEAA), 1% sodium pyruvate and 10% Fetal Bovine Serum (Merck, Germany). Cells were maintained at 37° C. with 5% CO2 until transfection with 0.5, 1.5, 5.0 and 15 μg/ml lipoplex-formulated EPO mRNA (LPX-RNA), as described in Kranz, L. M., et al. (2016) Nature, 534, 396-401. The complexed RNA (10 μl per well) was added in triplicates and supernatants were collected at 24 h after transfection to perform single cell cytotoxicity assay and to measure the cytokine/chemokine profile. […] The levels of IL-6 (Interleukin 6), TNF-α (Tumor necrosis factor alpha), IL-1 (Interleukin 1 beta), IFN-γ (Interferon gamma), MCP-1 (Monocyte Chemoattractant Protein-1), […] (Macrophage inflammatory protein 1 beta) and IL-10 (Interleukin 10) were quantified 24 h after the mRNA transfection. […]

## COC1C(OP(=O)(O)OC[C@H]2O[C@@H](c3cn(C)c(=O)[nH]c3=O)C(O)C2O)[C@@H](COP(=O)(O)OP(=O)([O-])OP(=O)(O)OC[C@H]2O[C@@H](n3c[n+](C)c4c(O)nc(N)nc43)C(O)C2OC)O[C@H]1n1cnc2c(N)ncnc21 (stereo partly shown) [I′-6, m^7G(^3′-OMe)pppA(2′-OMe)pm^1Ψ]
BALB/c mice; after IV injection
  24-hour EPO values compared with 6-hour values: higher than the 6-hour values
BALB/c mice; later time points
  translation (plasma EPO) relative to CC413: 2- to 3 fold
BALB/c mice; m1Ψ-modified mRNA capped with I′-6 vs U-containing mRNA capped with I′-1, each time point
  translation (EPO level) relative to I′-1: 2-3 fold
BALB/c mice; m1Ψ-modified mRNA, 6-24 hours after administration
  translation relative to unmodified I′-1: 2-3 fold
BALB/c mice; m1Ψ-modified mRNA, 48-72 hours after administration
  translation relative to unmodified I′-1: 4-5 fold
BALB/c mice; m1Ψ-modified mRNA, 48 and 72 h after injection, respectively
  translation / plasma EPO level relative to CC413: 1.5-3 fold
BALB/c mice; m1Ψ-modified mRNA, same capping efficiency
  performance compared with cap analogs with other modification: surpasses the performance of other cap analogs
BALB/c mice; regardless of the RNA modification
  translation of ARCA analogs compared to non-ARCA caps CC114 and I′-13: significantly better
BALB/c mice; regardless of the cap initiators
  plasma EPO compared with reference samples (I′-1, CC114, CC413): outperformed each reference sample
Human PBMCs
  toxic effect on cell viability (XTT): no toxic effect
